Test results from patent US12371454B2, “Cyclic peptide compound having Kras inhibitory action” (priority 2019, dated 2025).
Starred links: 1 amine or outer side, 2 acyl side, 3 side chain; linkers in the order of their positions; H or OH if unused. Positions of bridges follow the written chain, without caps; N, C: chain ends. Non-standard residues stand in square brackets, D forms with d. Residues, ends and D or L forms follow the SMILES beside them. *: point of attachment. hPhe(3,5-F2-4-CF3) = N[C@@H](CCc1cc(F)c(C(F)(F)F)c(F)c1)C(=O)O; hPhe(3-Cl-4-CF3) = N[C@@H](CCc1ccc(C(F)(F)F)c(Cl)c1)C(=O)O; NMePhe(3-CN) = CN[C@@H](Cc1cccc(C#N)c1)C(=O)O; NMePhe(4-Me) = CN[C@@H](Cc1ccc(C)cc1)C(=O)O; NMeGly(cPent) = CN[C@H](C(=O)O)C1CCCC1; X70 = CC(C)(O)COCCN(CC(=O)[*:2])[*:1]; NMe4Pal = CN[C@@H](Cc1ccncc1)C(=O)O; NMeCha = CN[C@@H](CC1CCCCC1)C(=O)O; NMeChg = CN[C@H](C(=O)O)C1CCCCC1; NMeI = CC[C@H](C)[C@H](NC)C(=O)O; dNMeF = CN[C@H](Cc1ccccc1)C(=O)O; NMeD = CN[C@@H](CC(=O)O)C(=O)O; NMeL = CN[C@@H](CC(C)C)C(=O)O; NMehSer = CN[C@@H](CCO)C(=O)O; NMeV = CN[C@H](C(=O)O)C(C)C; d(β3hA) = C[C@@H](N)CC(=O)O; NMeS = CN[C@@H](CO)C(=O)O; Morpholide = C1CN(*)CCO1; NMeA = CN[C@@H](C)C(=O)O; Piperidide = C1CCN(*)CC1; Pyrrolidide = C1CCN(*)C1; Ac5c = NC1(C(=O)O)CCCC1; Aze = O=C(O)[C@@H]1CCN1; Ac4c = NC1(C(=O)O)CCC1; NPrGly = CCCNCC(=O)O; X47 = Fc1cncc(C*)c1; Sar = CNCC(=O)O

The molecules below were run against T1, Kras and SOS1 (biotin-tagged human Kras loaded with GDP, His-tagged human SOS1) (Homo sapiens, UniProt P01116, G12D) (assay: Protein-protein interaction inhibition between Kras and SOS1 (KrasGl2D-SOS PPI) using AlphaScreen). Conditions: AlphaScreen; biotin-tagged human Kras loaded with GDP, His-tagged human SOS1; read-out: KRAS G12D-SOS PPI IC50.
T1 construct: made in house; host or cells: E. coli (stated for Kras only)
T1 sequence (P01116 1-188 isoform P01116-2 G12D): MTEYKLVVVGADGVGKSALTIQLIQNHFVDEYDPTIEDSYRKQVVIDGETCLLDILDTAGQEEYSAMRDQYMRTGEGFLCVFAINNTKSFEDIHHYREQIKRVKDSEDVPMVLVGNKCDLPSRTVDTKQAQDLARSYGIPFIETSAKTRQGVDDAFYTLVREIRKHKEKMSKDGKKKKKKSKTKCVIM
Type: binding
Summary of the method: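 Energy transfer from nickel-chelate donor beads bound to His-SOS1 to streptavidin acceptor beads bound to biotin-Kras, expressed in E. coli and loaded with GDP after purification, was monitored. Donors were excited at 680 nm; singlet oxygen reaching acceptors gave emission read at 520-620 nm.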

First: CC[C@H](C)[C@@H]1NC(=O)[C@H](CC(C)C)N(C)C(=O)C[C@@H](C(=O)N2CCCCC2)N(C)C(=O)[C@H]([C@@H](C)CC)N(C)C(=O)C2(CCCC2)NC(=O)[C@@H](Cc2ccccc2)N(C)C(=O)[C@H](CCc2cc(F)c(C(F)(F)F)c(F)c2)NC(=O)CN(C)C(=O)[C@H](Cc2ccc(C)cc2)N(C)C(=O)[C@@H]2CCN2C(=O)[C@H](C)N(C)C1=O [Compound 1895] ([NMeL]I[NMeA][Aze][NMePhe(4-Me)][Sar][hPhe(3,5-F2-4-CF3)][dNMeF][Ac5c][NMeI][NMeD]-Piperidide; lactam N-11)
Second: CC[C@H](C)[C@@H]1NC(=O)[C@H](CC(C)C)N(C)C(=O)C[C@@H](C(=O)N2CCCCC2)N(C)C(=O)[C@H](C2CCCCC2)N(C)C(=O)C2(CCCC2)NC(=O)[C@H](Cc2ccncc2)N(C)C(=O)[C@H](CCc2ccc(C(F)(F)F)c(Cl)c2)NC(=O)CN(C)C(=O)[C@H](CC2CCCCC2)N(C)C(=O)[C@@H]2CCN2C(=O)[C@H](C)N(C)C1=O [Compound 656] ([NMeL]I[NMeA][Aze][NMeCha][Sar][hPhe(3-Cl-4-CF3)][NMe4Pal][Ac5c][NMeChg][NMeD]-Piperidide; lactam N-11)
The IC50 of the first is 21-fold higher: 360 nM for the first, 17 nM for the second. The second is the more potent here.

Going from `CC[C@H](C)[C@@H]1NC(=O)[C@H](CC(C)C)N(C)C(=O)C[C@@H](C)NC(=O)[C@H](C(C)C)N(C)C(=O)C2(CCCC2)NC(=O)[C@@H]2CCCN2C(=O)[C@H](CCc2ccc(C(F)(F)F)c(Cl)c2)NC(=O)CN(C)C(=O)[C@H](Cc2cccc(C#N)c2)N(C)C(=O)CN(C)C(=O)CN(C)C1=O` [Compound 975] (cyclo([Ac5c][NMeV][d(β3hA)][NMeL]I[Sar][Sar][NMePhe(3-CN)][Sar][hPhe(3-Cl-4-CF3)]P)) to `CCCN1CC(=O)N(C)CC(=O)N(C)[C@@H](CC2CCCCC2)C(=O)N(C)CC(=O)N[C@@H](CCc2ccc(C(F)(F)F)c(Cl)c2)C(=O)N2CCC[C@H]2C(=O)NC2(CCCC2)C(=O)N(C)[C@@H](C(C)C)C(=O)N[C@H](C)CC(=O)N(C)[C@@H](CC(C)C)C(=O)N[C@@H]([C@@H](C)CC)C1=O` [Compound 116] (cyclo([Ac5c][NMeV][d(β3hA)][NMeL]I[NPrGly][Sar][NMeCha][Sar][hPhe(3-Cl-4-CF3)]P)), the IC50 rises from 22 nM to 140 nM (6.4-fold).

Going from `CC[C@H](C)[C@@H]1NC(=O)[C@H](CC(C)C)N(C)C(=O)C[C@@H](C(=O)N2CCCCC2)N(C)C(=O)[C@H](C2CCCCC2)N(C)C(=O)C2(CCCC2)NC(=O)[C@H](COCc2cncc(F)c2)N(C)C(=O)[C@H](CCc2ccc(C(F)(F)F)c(Cl)c2)NC(=O)CN(C)C(=O)[C@H](CC2CCCCC2)N(C)C(=O)CN(C)C(=O)CN(C)C1=O` [Compound 950] ([NMeL]I[Sar][Sar][NMeCha][Sar][hPhe(3-Cl-4-CF3)][NMeS](X47)[Ac5c][NMeChg][NMeD]-Piperidide; lactam N-11) to `CC[C@H](C)[C@@H]1NC(=O)[C@H](CC(C)C)N(C)C(=O)C[C@@H](C(=O)N2CCCC2)N(C)C(=O)[C@H](C2CCCCC2)N(C)C(=O)C2(CCC2)NC(=O)[C@@H]2CCCN2C(=O)[C@H](CCc2ccc(C(F)(F)F)c(Cl)c2)NC(=O)CN(C)C(=O)[C@H](CC2CCCCC2)N(C)C(=O)CN(C)C(=O)CN(C)C1=O` [Compound 1894] ([NMeL]I[Sar][Sar][NMeCha][Sar][hPhe(3-Cl-4-CF3)]P[Ac4c][NMeChg][NMeD]-Pyrrolidide; lactam N-11), the IC50 falls from 9 nM to 0.55 nM (16-fold). The second is the more potent here.

First: CC[C@H](C)[C@@H]1NC(=O)[C@H](CC(C)C)N(C)C(=O)C[C@@H](C(=O)N2CCCCC2)N(C)C(=O)[C@H](C2CCCCC2)N(C)C(=O)C2(CCCC2)NC(=O)[C@@H]2CCCN2C(=O)[C@H](CCc2ccc(C(F)(F)F)c(Cl)c2)NC(=O)CN(C)C(=O)[C@H](CCOC)N(C)C(=O)CN(C)C(=O)CN(C)C1=O [Compound 159] ([NMeL]I[Sar][Sar][NMehSer](Me)[Sar][hPhe(3-Cl-4-CF3)]P[Ac5c][NMeChg][NMeD]-Piperidide; lactam N-11)
Second: CC[C@H](C)[C@@H]1NC(=O)[C@H](CC(C)C)N(C)C(=O)C[C@@H](C(=O)N2CCOCC2)N(C)C(=O)[C@H]([C@@H](C)CC)N(C)C(=O)C2(CCCC2)NC(=O)[C@@H]2CCCN2C(=O)[C@H](CCc2ccc(C(F)(F)F)c(Cl)c2)NC(=O)CN(C)C(=O)[C@H](CC2CCCCC2)N(C)C(=O)CN(C)C(=O)CN(C)C1=O [Compound 1979] ([NMeL]I[Sar][Sar][NMeCha][Sar][hPhe(3-Cl-4-CF3)]P[Ac5c][NMeI][NMeD]-Morpholide; lactam N-11)
The IC50 of the first is 3.8-fold higher: 2.4 nM for the first, 0.64 nM for the second.

Molecule `CC[C@H](C)[C@@H]1NC(=O)[C@H](CC(C)C)N(C)C(=O)C[C@@H](C(=O)N(C)C)N(C)C(=O)[C@H](C2CCCC2)N(C)C(=O)C2(CCCC2)NC(=O)CN(CCOCC(C)(C)O)C(=O)[C@H](CCc2ccc(C(F)(F)F)c(Cl)c2)NC(=O)CN(C)C(=O)[C@H](CC2CCCCC2)N(C)C(=O)[C@@H]2CCN2C(=O)[C@H](C)N(C)C1=O` [Compound 2023] ([NMeL]I[NMeA][Aze][NMeCha][Sar][hPhe(3-Cl-4-CF3)][X70][Ac5c][NMeGly(cPent)][NMeD]-NMe2; lactam N-11) has an IC50 of 1.7 nM.
